We go through seven compounds from PMC11440508, “Dually Labeled Neurotensin NTS1R Ligands for Probing Radiochemical and Fluorescence-Based Binding Assays” (Journal of Medicinal Chemistry, 2024).

The target of experiment [1] is T1, NTS1R (Homo sapiens, UniProt P30989). Kind of experiment: Radioligand competition binding with [^3H]UR-MK300 at intact HT-29 colon carcinoma cells. The settings on record: [^3H]UR-MK300, intact HT-29 cells, 23 °C; read-out: NTS1R pKi ± SEM (converted). The procedure:
NTS1R binding affinities were determined in a reported competition binding assay[13] using intact hNTS1R-expressing HT-29 colon carcinoma cells and [^3H]UR-MK300 (structure see Figure 1A) as radioligand (competition binding curves shown in Figure S4, Supporting Information).
NTS1R radioligand competition binding experiments with [^3H]UR-MK300 (molar activity: 2.41 TBq/mmol) and the peptides 6–9, 10a, 10b, 13–16, and 18 were performed with intact hNTS1R-expressing human HT-29 colon carcinoma cells at 23 ± 1 °C using a previously reported protocol.[13] […] Cells were seeded one day before the assay, yielding a confluency of at least 90% on the day of the experiment. Total binding data (including total binding in the absence of competitor) were plotted as dpm values against log(concentration competitor) and analyzed by a four-parameter logistic equation (log(inhibitor) vs response–variable slope, GraphPad Prism 5, GraphPad Software, San Diego, CA) to obtain pIC50 values. Individual pIC50 values were converted to pKi values according to the Cheng–Prusoff equation[60] (logarithmic form). To plot average data from individual binding experiments, data were normalized (100% = “top” of the four-parameter logistic fit, 0% = unspecifically bound radioligand).

In experiment [2] the target is T1, NTS1R. Kind of experiment: Fura-2 Ca^2+ assay at CHO-hNTS1R cells. It is filed as cell-based. The settings on record: agonist mode, read-out: NTS1R pEC50 ± SEM (converted).
The target in experiment [3] is T1, NTS1R. Put plainly: High-content imaging (HCI) competition binding, adherent CHO-hNTS1R cells. The settings on record: labeled probe 13 ([…]), 90 min, 23 °C. The procedure: The final volume per well was 200 μL. […] All experiments were performed in triplicate.
The target of experiment [4] is NTS1R. The settings on record: reported binding data, cited from earlier work.
The target in experiment [5] is T1, NTS1R. Kind of experiment: Radiochemical competition binding, adherent CHO-hNTS1R cells. The settings on record: labeled probe [^3H]13 (1.3 nM), 90 min, 23 °C.
Experiment [6] deals with T1, NTS1R. Put plainly: Radiochemical competition binding, suspended CHO-hNTS1R cells. The settings on record: labeled probe [^3H]13 (1.8 nM), 90 min, 23 °C.
In experiment [7] the target is T1, NTS1R. Kind of experiment: Fluorescence anisotropy (FA) competition binding at hNTS1R-displaying BBVs. Set-up: NlucC (C-terminal fragment of nanoluciferase, 11 amino acids) (C); made in house; host or cells: Sf9 insect cells, baculovirus (pIMACE-CMVintP10-hNTS1R-Nluc, DH10MultiBac); budded baculovirus particles. The settings on record: 27 °C. Background: Polarisation of emitted light reports the rotation of a fluorescent probe.

Experiment [8] has as its target T1, NTS1R. Put plainly: Radiochemical competition binding with [^3H]13 at membranes of CHO-hNTS1R cells. The settings on record: labeled probe [^3H]13 ([…]), 50 μM GppNHp, 23 °C.
In experiment [9] the target is T1, NTS1R. Kind of experiment: Flow cytometric (FC) competition binding, suspended CHO-hNTS1R cells. The settings on record: labeled probe 13 (2.6 nM), 90 min, 23 °C. The procedure:
Flow cytometry-based NTS1R binding studies were performed with intact CHO-hNTS1R (all kind of experiments) and HT-29 cells (only saturation binding) using a BD FACSCanto II (Becton Dickinson, Heidelberg, Germany), equipped with an argon laser (488 nm) and a red diode laser (640 nm), and a BD High Throughput Sampler (HTS unit) for microtiter plates. Saturation and competition binding experiments were performed in triplicate in 96-well polypropylene plates (Brand 701330, Wertheim, Germany) using the HTS unit for sample injection. Association and dissociation experiments were performed in duplicate in 5 mL polypropylene tubes (VWR, Radnor) using the standard injection port of the flow cytometer. The following gain settings for forward and sideward scatter were applied: FSC, 0 V; SSC, 252 V. Fluorescence was recorded using the PE-channel (excitation: 488 nm, emission: 585 ± 21) nm with a PMT gain of 330–400 V. For measurements using the HTS unit, 45 μL of the sample were injected with a speed of 1.5 μL/s. For measurements, requiring the use of the standard injection port, the medium flow rate ([…]) was used. Measurements were stopped after 30 s (HTS unit) or after counting of 500–3000 gated events (standard injection port). […]
A 96-well polypropylene plate was prefilled with 200 μL of cell suspension. […] Data were analyzed as described for HCI competition binding experiments.
(A flow cytometer gives signals particle by particle.)

Where two headings read alike, the source gives them in different places. Starred links: 1 amine or outer side, 2 acyl side, 3 side chain; linkers in the order of their positions; H or OH if unused. Non-standard residues stand in square brackets, D forms with d. Residues, ends and D or L forms follow the SMILES beside them. Groups on a side chain read outwards from the residue. *: point of attachment. X1 = CN(C)c1ccc2c(-c3ccc(C(=O)*)cc3C(=O)[O-])c3ccc(=[N+](C)C)cc-3oc2c1; X4 = NCCCCNC(=O)N=C(N)NCCC[C@H](N[*:1])C(=O)[*:2]; dTyr(β,β-Me2) = CC(C)(c1ccc(O)cc1)[C@@H](N)C(=O)O; Tyr(β,β-Me2) = CC(C)(c1ccc(O)cc1)[C@H](N)C(=O)O; Gly(piperidin-4-yl) = N[C@H](C(=O)O)C1CCNCC1; X2 = O=C(CCc1cn(CCCN[*:1])nn1)[*:2]; Pent4ynoyl = C#CCCC(=O)*; Pra = C#CC[C@H](N)C(=O)O; NH(CH2)4NH2 = NCCCCN*; CO = O=C([*:1])[*:2]; Propionyl = CCC(=O)*; GABA = NCCCC(=O)O

T1 sequence (P30989 whole entry): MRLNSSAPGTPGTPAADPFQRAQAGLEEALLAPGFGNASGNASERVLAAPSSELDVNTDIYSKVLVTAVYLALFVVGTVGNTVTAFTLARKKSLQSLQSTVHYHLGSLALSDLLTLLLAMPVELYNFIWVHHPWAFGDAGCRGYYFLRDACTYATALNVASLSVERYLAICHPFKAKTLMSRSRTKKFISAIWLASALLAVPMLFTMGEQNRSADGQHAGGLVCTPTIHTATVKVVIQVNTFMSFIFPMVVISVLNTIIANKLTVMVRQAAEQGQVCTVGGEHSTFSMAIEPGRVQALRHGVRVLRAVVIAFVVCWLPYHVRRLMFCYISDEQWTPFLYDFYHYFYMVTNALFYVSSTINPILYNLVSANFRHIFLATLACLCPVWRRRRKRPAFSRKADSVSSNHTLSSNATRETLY

Regarding `CCC(=O)NCCCC(=O)N[C@@H](Cc1cn(CCCNC(=O)c2ccc(-c3c4ccc(=[N+](C)C)cc-4oc4cc(N(C)C)ccc34)c(C(=O)[O-])c2)nn1)C(=O)N[C@H](C(=O)N1CCC[C@H]1C(=O)N[C@@H](CCCNC(=N)N)C(=O)N[C@@H](CCCNC(=N)N)C(=O)N1CCC[C@H]1C(=O)N[C@@H](Cc1ccc(O)cc1)C(=O)N[C@H](C(=O)N[C@@H](CC(C)C)C(=O)O)[C@@H](C)CC)C1CCNCC1` [Compound 16], in experiment [1], the Ki is 0.724 nM.
Same read-out and setting: next, `CCC(=O)NCCCC[C@@H](NC(=O)CCc1cn(CCCNC(=O)c2ccc(-c3c4ccc(=[N+](C)C)cc-4oc4cc(N(C)C)ccc34)c(C(=O)[O-])c2)nn1)C(=O)N1CCC[C@H]1C(=O)N[C@@H](CCCNC(=N)N)C(=O)N[C@@H](CCCNC(=N)N)C(=O)N1CCC[C@H]1C(=O)N[C@@H](Cc1ccc(O)cc1)C(=O)N[C@H](C(=O)N[C@@H](CC(C)C)C(=O)O)[C@@H](C)CC` [Compound 15] (X1-[X2][dK](Propionyl)PRRPYIL-OH): 2.95 nM.
Consider `C#CCCC(=O)N[C@H](C(=O)N1CCC[C@H]1C(=O)N[C@@H](CCCNC(N)=NC(=O)NCCCCN)C(=O)N[C@@H](CCCNC(=N)N)C(=O)N1CCC[C@H]1C(=O)N[C@@H](C(=O)N[C@H](C(=O)N[C@@H](CC(C)C)C(=O)O)[C@@H](C)CC)C(C)(C)c1ccc(O)cc1)C1CCNCC1` [Compound 10b, N^α-(Pent-4-ynoyl)-2-(piperidin-4-yl)-Gly-Pro-N^ω-[(4-aminobutyl)aminocarbonyl]Arg-Arg-Pro-β,β-dimethyl-D-Tyr-Ile-Leu Tetrakis(hydrotrifluoroacetate)] (Pent4ynoyl-[Gly(piperidin-4-yl)]P[X4]RP[dTyr(β,β-Me2)]IL-OH), for which the Ki in experiment [1] is 135 nM.
The same measure, in the same setting: with `C#CCCC(=O)N[C@H](C(=O)N1CCC[C@H]1C(=O)N[C@@H](CCCNC(N)=NC(=O)NCCCCN)C(=O)N[C@@H](CCCNC(=N)N)C(=O)N1CCC[C@H]1C(=O)N[C@@H](Cc1ccc(O)cc1)C(=O)N[C@H](C(=O)N[C@@H](CC(C)C)C(=O)O)[C@@H](C)CC)C1CCNCC1` [Compound 6, N^α-(Pent-4-ynoyl)-2-(piperidin-4-yl)-Gly-Pro-N^ω-[(4-aminobutyl)aminocarbonyl]Arg-Arg-Pro-Tyr-Ile-Leu Tetrakis(hydrotrifluoroacetate)] (Pent4ynoyl-[Gly(piperidin-4-yl)]P[X4]RPYIL-OH) the figure was 0.603 nM; with `C#CC[C@H](NC(=O)CCCN)C(=O)N[C@H](C(=O)N1CCC[C@H]1C(=O)N[C@@H](CCCNC(=N)N)C(=O)N[C@@H](CCCNC(=N)N)C(=O)N1CCC[C@H]1C(=O)N[C@@H](Cc1ccc(O)cc1)C(=O)N[C@H](C(=O)N[C@@H](CC(C)C)C(=O)O)[C@@H](C)CC)C1CCNCC1` [Compound 9] (H-[GABA][Pra][Gly(piperidin-4-yl)]PRRPYIL-OH), 0.302 nM.
In the case of `C#CCCC(=O)N[C@H](C(=O)N1CCC[C@H]1C(=O)N[C@@H](CCCNC(=N)NC(=O)NCCCCN)C(=O)N[C@@H](CCCNC(=N)N)C(=O)N1CCC[C@H]1C(=O)N[C@H](C(=O)N[C@H](C(=O)N[C@@H](CC(C)C)C(=O)O)[C@@H](C)CC)C(C)(C)c1ccc(O)cc1)C1CCNCC1` [Compound 10a, N^α-(Pent-4-ynoyl)-2-(piperidin-4-yl)-Gly-Pro-N^ω-[(4-aminobutyl)aminocarbonyl]Arg-Arg-Pro-β,β-dimethyl-L-Tyr-Ile-Leu Tetrakis(hydrotrifluoroacetate)] (Pent4ynoyl-[Gly(piperidin-4-yl)]PR([CO-NH(CH2)4NH2])RP[Tyr(β,β-Me2)]IL-OH), the EC50 in experiment [2] is 0.316 nM.
In the case of SR142948, the “HCI: pKi ± SEM” value in experiment [3] was 9.42 ± 0.21. Besides, the values for the Ki in [4] (ref 13) and in experiment [4] (ref 52) were 1.1 nM and 1 nM, respectively. In addition, the “RC adherent cells: pKi ± SEM” value in experiment [5] was 8.31 ± 0.18. For the same compound, the “RC cell suspension: pKi ± SEM” value in experiment [6] was 8.19 ± 0.16. Also, the “FA: pKi ± SEM” value in experiment [7] (labeled probe 13 (0.3 nM), NTS1R-BBVs, 90 min) worked out at 8.97. In experiment [7] (labeled probe 18, NTS1R-BBVs), the “FA: pKi” value was found to be 9.19. For the same compound, the “pKi ± SEM” value in [8] was 9.56 ± 0.06. Also, in experiment [9], the “FC: pKi ± SEM” value was 9.24 ± 0.15.
